# From PubChem BioAssay AID256 (DTP/NCI, 2004)
# Where “and” joins values, the source holds several entries; their conditions need not be identical. Equal values may be shown once. Toxic doses and inconclusive results are not listed.
# System: CD2F1 mice, L1210 leukemia ip, survival T/C
# Test: NCI In Vivo Anticancer Drug Screen. Data for tumor model L1210 Leukemia (intraperitoneal) in CD2F1 (CDF1) mice
# Conditions: higher = longer survival
# Summary of the method: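 In this screen, transplantable tumors were grown in mice given either the compound or its vehicle. Results were expressed as the treated measurement relative to the control measurement.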
# [1] = endpoint: mean survival time, dose: 100.0 mg/kg/injection, schedule: Q01DX009 (ip), vehicle: saline with Tween-80
# [2] = endpoint: mean survival time, dose: 200.0 mg/kg/injection, schedule: Q01DX009 (ip), vehicle: saline with Tween-80
# [3] = endpoint: mean survival time, dose: 400.0 mg/kg/injection, schedule: Q01DX009 (ip), vehicle: saline with Tween-80
# [4] = endpoint: mean survival time, dose: 100.0 mg/kg/injection, schedule: Q04DX003 (ip), vehicle: saline
# [5] = endpoint: mean survival time, dose: 200.0 mg/kg/injection, schedule: Q04DX003 (ip), vehicle: saline
# [6] = endpoint: mean survival time, dose: 100.0 mg/kg/injection, schedule: Q04DX003 (ip), vehicle: saline with Tween-80
# [7] = endpoint: mean survival time, dose: 200.0 mg/kg/injection, schedule: Q04DX003 (ip), vehicle: saline with Tween-80
# [8] = endpoint: mean survival time, dose: 400.0 mg/kg/injection, schedule: Q04DX003 (ip), vehicle: saline with Tween-80
# [9] = endpoint: mean survival time, dose: 50.0 mg/kg/injection, schedule: Q04DX003 (ip), vehicle: saline
# [10] = endpoint: mean survival time, dose: 50.0 mg/kg/injection, schedule: Q01DX009 (ip), vehicle: Klucel (hydroxypropylcellulose) (HPC)
# [11] = endpoint: mean survival time, dose: 100.0 mg/kg/injection, schedule: Q01DX009 (ip), vehicle: Klucel (hydroxypropylcellulose) (HPC)
# [12] = endpoint: mean survival time, dose: 200.0 mg/kg/injection, schedule: Q01DX009 (ip), vehicle: Klucel (hydroxypropylcellulose) (HPC)
# [13] = endpoint: mean survival time, dose: 100.0 mg/kg/injection, schedule: Q01DX001 (ip), vehicle: saline with Tween-80
# [14] = endpoint: mean survival time, dose: 200.0 mg/kg/injection, schedule: Q01DX001 (ip), vehicle: saline with Tween-80
# [15] = endpoint: mean survival time, dose: 400.0 mg/kg/injection, schedule: Q01DX001 (ip), vehicle: saline with Tween-80
# [16] = endpoint: median survival time, dose: 12.5 mg/kg/injection, schedule: Q01DX005 (ip), vehicle: water
# [17] = endpoint: median survival time, dose: 25.0 mg/kg/injection, schedule: Q01DX005 (ip), vehicle: water
# [18] = endpoint: median survival time, dose: 50.0 mg/kg/injection, schedule: Q01DX005 (ip), vehicle: water
# [19] = endpoint: median survival time, dose: 100.0 mg/kg/injection, schedule: Q01DX005 (ip), vehicle: water
# [20] = endpoint: mean survival time, dose: 6.25 mg/kg/injection, schedule: Q01DX009 (ip), vehicle: saline with Tween-80
# [21] = endpoint: mean survival time, dose: 12.5 mg/kg/injection, schedule: Q01DX009 (ip), vehicle: saline with Tween-80
# [22] = endpoint: mean survival time, dose: 200.0 mg/kg/injection, schedule: Q04DX003 (ip), vehicle: Klucel (hydroxypropylcellulose) (HPC)
# [23] = endpoint: mean survival time, dose: 25.0 mg/kg/injection, schedule: Q01DX009 (ip), vehicle: saline with Tween-80
structure (smiles),measurement,setting,value
COc1ccc(OC)c(NC(=O)Oc2ccc(C(=O)OCc3ccccc3)cc2)c1,T/C,[1],101 % of control
same,T/C,[2],104 % of control
same,T/C,[3],104 % of control
COc1ccc(N=C(c2ccccc2)c2ccccc2)cc1,T/C,[1],95 % of control
same,T/C,[4],89 % of control
same,T/C,[2],97 % of control
same,T/C,[5],101 % of control
same,T/C,[3],91 % of control
same,T/C,"endpoint: mean survival time, dose: 400.0 mg/kg/injection, schedule: Q04DX003 (ip), vehicle: saline",101 % of control
OC1CCCCC12CC2 (stereo unspecified),T/C,[6],102 % of control
same,T/C,[7],104 % of control
same,T/C,[8],113 % of control
c1cc(-n2nnc3cnccc32)ccn1,T/C,"endpoint: mean survival time, dose: 25.0 mg/kg/injection, schedule: Q04DX003 (ip), vehicle: saline",102 % of control
same,T/C,[9],104 % of control
COc1ccccc1NC(N)=O,T/C,[1],95 % of control
same,T/C,[2],86 % of control
same,T/C,[3],95 % of control
NNS(=O)(=O)c1ccc(Oc2ccc(S(=O)(=O)NN)cc2)cc1,T/C,[10],101 % of control
same,T/C,[11],96 % of control
same,T/C,[12],108 % of control
O=[N+]([O-])c1ccc(N/N=C2\C(c3ccccc3)=C(c3ccccc3)CC2Cl)c([N+](=O)[O-])c1 (stereo unspecified),T/C,[13],90 % of control
same,T/C,[14],101 % of control
same,T/C,[15],96 % of control
CC(=O)CC(Br)CBr (stereo unspecified),T/C,[6],96 % of control
NCc1ccc(-c2nc3ncnc(N)c3[nH]2)cc1,T/C,"endpoint: mean survival time, dose: 3.13 mg/kg/injection, schedule: Q01DX001 (ip), vehicle: saline with Tween-80",108 % of control
same,T/C,"endpoint: mean survival time, dose: 6.25 mg/kg/injection, schedule: Q01DX001 (ip), vehicle: saline with Tween-80",102 % of control
same,T/C,"endpoint: mean survival time, dose: 12.5 mg/kg/injection, schedule: Q01DX001 (ip), vehicle: saline with Tween-80",100 % of control and 110 % of control
same,T/C,"endpoint: mean survival time, dose: 25.0 mg/kg/injection, schedule: Q01DX001 (ip), vehicle: saline with Tween-80",102 % of control
same,T/C,"endpoint: mean survival time, dose: 50.0 mg/kg/injection, schedule: Q01DX001 (ip), vehicle: saline with Tween-80",109 % of control
same,T/C,[13],106 % of control and 110 % of control
O=c1nc(NC2CC2)ccn1C1OC(CO)C(O)C1O (stereo unspecified),T/C,[16],97 % of control
same,T/C,[17],106 % of control
same,T/C,[18],107 % of control
same,T/C,[19],107 % of control
same,T/C,"endpoint: median survival time, dose: 200.0 mg/kg/injection, schedule: Q01DX005 (ip), vehicle: water",101 % of control
Cc1ccc2c(C)nc(N=C(N)N)nc2c1,T/C,"endpoint: mean survival time, dose: 18.8 mg/kg/injection, schedule: Q01DX009 (ip), vehicle: saline",103 % of control
same,T/C,"endpoint: mean survival time, dose: 37.5 mg/kg/injection, schedule: Q01DX009 (ip), vehicle: saline",96 % of control
O=[N+]([O-])O.[NH-]C1CCCCC1[NH-].[NH-]C1CCCCC1[NH-].[OH-].[OH-].[Pt+4].[Pt+4] (stereo unspecified),T/C,"endpoint: mean survival time, dose: 1.25 mg/kg/injection, schedule: Q04DX003 (ip), vehicle: water",110 % of control
CN(C)C/C(=C\c1ccccc1)C(=O)c1ccccc1,T/C,"endpoint: mean survival time, dose: 12.5 mg/kg/injection, schedule: Q04DX003 (ip), vehicle: other",98 % of control
same,T/C,"endpoint: mean survival time, dose: 25.0 mg/kg/injection, schedule: Q04DX003 (ip), vehicle: other",97 % of control
same,T/C,"endpoint: mean survival time, dose: 50.0 mg/kg/injection, schedule: Q04DX003 (ip), vehicle: other",101 % of control
C(=Nc1ccc(-c2ccccc2)cc1)c1ccccc1,T/C,[1],87 % of control
same,T/C,[3],91 % of control
CC1(CCCc2ccc(N(CCCl)CCCl)cc2)NC(=O)NC1=O (stereo unspecified),T/C,[10],114 % of control
same,T/C,[11],93 % of control
same,T/C,[12],86 % of control
COC1OC(CO)C(OC)C(OC)C1NC(C)=O (stereo unspecified),T/C,"endpoint: mean survival time, dose: 100.0 mg/kg/injection, schedule: Q01DX001 (ip), vehicle: saline + alcohol",101 % of control
same,T/C,"endpoint: mean survival time, dose: 200.0 mg/kg/injection, schedule: Q01DX001 (ip), vehicle: saline + alcohol",103 % of control
same,T/C,"endpoint: mean survival time, dose: 400.0 mg/kg/injection, schedule: Q01DX001 (ip), vehicle: saline + alcohol",97 % of control
CC1=C(c2ccccc2)C(c2ccccc2)c2ccccc21 (stereo unspecified),T/C,[13],94 % of control
same,T/C,[14],93 % of control
same,T/C,[15],92 % of control
Cc1cc(C)c(NC(=O)c2ccccc2Cl)c(C)c1,T/C,[6],97 % of control
same,T/C,[7],110 % of control
same,T/C,[8],97 % of control
ClC1CCC[N-]C1.ClC1CCC[N-]C1.[Cl][Pt+2]([Cl])([Cl])[Cl] (stereo unspecified),T/C,"endpoint: mean survival time, dose: 0.78 mg/kg/injection, schedule: Q01DX009 (ip), vehicle: saline with Tween-80",102 % of control
same,T/C,"endpoint: mean survival time, dose: 1.56 mg/kg/injection, schedule: Q01DX009 (ip), vehicle: saline with Tween-80",109 % of control
same,T/C,"endpoint: mean survival time, dose: 3.13 mg/kg/injection, schedule: Q01DX009 (ip), vehicle: saline with Tween-80",105 % of control
same,T/C,[20],112 % of control
same,T/C,[21],104 % of control
O=C1NC(=O)c2ccc3c4c(ccc1c24)C(=O)NC3=O,T/C,"endpoint: mean survival time, dose: 15.5 mg/kg/injection, schedule: Q01DX009 (ip), vehicle: saline with Tween-80",100 % of control
same,T/C,"endpoint: mean survival time, dose: 31.0 mg/kg/injection, schedule: Q01DX009 (ip), vehicle: saline with Tween-80",94 % of control
same,T/C,"endpoint: mean survival time, dose: 62.0 mg/kg/injection, schedule: Q01DX009 (ip), vehicle: saline with Tween-80",100 % of control
same,T/C,"endpoint: mean survival time, dose: 62.5 mg/kg/injection, schedule: Q01DX009 (ip), vehicle: saline with Tween-80",98 % of control
N#CCCCC1(CCCC#N)OCCO1,T/C,[9],100 % of control
same,T/C,[4],102 % of control
same,T/C,[5],107 % of control
CC1([N+](=O)[O-])COC(c2ccc(Cl)cc2)OC1 (stereo unspecified),T/C,"endpoint: mean survival time, dose: 100.0 mg/kg/injection, schedule: Q04DX003 (ip), vehicle: Klucel (hydroxypropylcellulose) (HPC)",96 % of control
same,T/C,[22],104 % of control
O=NNc1ccc2cccnc2n1,T/C,[16],153 % of control
same,T/C,[17],162 % of control
same,T/C,[18],164 % of control
same,T/C,"endpoint: median survival time, dose: 60.0 mg/kg/injection, schedule: Q01DX005 (ip), vehicle: water",223 % of control
same,T/C,[19],175 % of control and 181 % of control
same,T/C,"endpoint: median survival time, dose: 166.66 mg/kg/injection, schedule: Q01DX005 (ip), vehicle: water",105 % of control
C(#CCNC1CCCCC1)CNC1CCCCC1,T/C,"endpoint: mean survival time, dose: 25.0 mg/kg/injection, schedule: Q04DX002 (ip), vehicle: saline with Tween-80",94 % of control
same,T/C,"endpoint: mean survival time, dose: 50.0 mg/kg/injection, schedule: Q04DX002 (ip), vehicle: saline with Tween-80",98 % of control
NC1CC(N)C(O)C(O)C1O (stereo unspecified),T/C,"endpoint: mean survival time, dose: 100.0 mg/kg/injection, schedule: Q01DX001 (ip), vehicle: saline",95 % of control
same,T/C,"endpoint: mean survival time, dose: 100.0 mg/kg/injection, schedule: Q04DX002 (ip), vehicle: saline with Tween-80",103 % of control
same,T/C,"endpoint: mean survival time, dose: 200.0 mg/kg/injection, schedule: Q01DX001 (ip), vehicle: saline",100 % of control
same,T/C,"endpoint: mean survival time, dose: 200.0 mg/kg/injection, schedule: Q04DX002 (ip), vehicle: saline with Tween-80",103 % of control
same,T/C,"endpoint: mean survival time, dose: 400.0 mg/kg/injection, schedule: Q01DX001 (ip), vehicle: saline",94 % of control
same,T/C,"endpoint: mean survival time, dose: 400.0 mg/kg/injection, schedule: Q04DX002 (ip), vehicle: saline with Tween-80",95 % of control
NC(=O)c1[nH]cnc1/N=N/N(CCCl)Cc1ccccc1,T/C,"endpoint: mean survival time, dose: 66.0 mg/kg/injection, schedule: Q01DX009 (ip), vehicle: Klucel (hydroxypropylcellulose) (HPC)",180 % of control
same,T/C,[11],264 % of control
same,T/C,"endpoint: mean survival time, dose: 150.0 mg/kg/injection, schedule: Q01DX009 (ip), vehicle: Klucel (hydroxypropylcellulose) (HPC)",264 % of control
same,T/C,[22],227 % of control
same,T/C,"endpoint: mean survival time, dose: 400.0 mg/kg/injection, schedule: Q04DX003 (ip), vehicle: Klucel (hydroxypropylcellulose) (HPC)",268 % of control
CN(C)c1ccc2nc(CC(O)(C(F)(F)F)C(F)(F)F)ccc2c1,T/C,[23],95 % of control
same,T/C,"endpoint: mean survival time, dose: 50.0 mg/kg/injection, schedule: Q01DX009 (ip), vehicle: saline with Tween-80",95 % of control
same,T/C,[1],93 % of control
same,T/C,[6],89 % of control
CCc1cccc(OS(=O)(=O)c2cccc([N+](=O)[O-])c2)c1,T/C,[1],98 % of control
same,T/C,[6],103 % of control
same,T/C,[2],102 % of control
same,T/C,[7],103 % of control
same,T/C,[3],93 % of control
same,T/C,[8],101 % of control
O=C1OCC(Cl)=C1Cl,T/C,[20],96 % of control
same,T/C,[21],94 % of control
same,T/C,[23],98 % of control
